Results: patent publication US20260262643A1, “HERBICIDAL BENZOXAZINES” (FMC CORPORATION, priority 2022, published 2026)

Key:
green foxtail [1] = assay: Test C preemergence; type: in vivo, Setaria viridis; conditions: 0 to 100 scale (0 no effect, 100 complete control)
How it was run: (§1)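 Seeds in loam–sand blend received preemergence directed soil spray of test chemicals in non-phytotoxic solvent with surfactant; postemergence treatment was applied at one- to two-leaf stage (2–10 cm). After 10 days in greenhouse, injury rated visually versus untreated controls, 0 (no effect) to 100 (complete control).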

oat, wild [2] = assay: Test C postemergence; type: in vivo, Avena fatua; conditions: 10 days
How it was run: as §1

oat, wild [3] = assay: Test C preemergence; type: in vivo, Avena fatua; conditions: 0 to 100 scale (0 no effect, 100 complete control)
How it was run: as §1

ducksalad = assay: Test D flooded paddy test; type: in vivo, Heteranthera limosa; conditions: 250 g ai/ha, applied to paddy water, visual rating after 13 to 14 days, scale 0 to 100 (0 no effect, 100 complete control)
How it was run: (§2)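 Rating scale 0–100 (0 no effect, 100 complete control), visual, versus controls. Readout at 13–14 days after in-water application to 2-leaf plants in pots flooded 3 cm deep.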

barnyardgrass [4] = assay: Test C preemergence; type: in vivo, Echinochloa crusgalli; conditions: 0 to 100 scale (0 no effect, 100 complete control)
How it was run: as §1

pigweed, palmer [5] = assay: Test C postemergence; type: in vivo, Amaranthus palmeri; conditions: 10 days
How it was run: as §1

ryegrass, Italian [6] = assay: Test C preemergence; type: in vivo, Lolium multiflorum; conditions: 0 to 100 scale (0 no effect, 100 complete control)
How it was run: as §1

kochia [7] = assay: Test C preemergence; type: in vivo, Bassia scoparia; conditions: 0 to 100 scale (0 no effect, 100 complete control)
How it was run: as §1

blackgrass [8] = assay: Test C preemergence; type: in vivo, Alopecurus myosuroides; conditions: 0 to 100 scale (0 no effect, 100 complete control)
How it was run: as §1

ryegrass, Italian [9] = assay: Test C postemergence; type: in vivo, Lolium multiflorum; conditions: 10 days
How it was run: as §1

barnyardgrass [10] = assay: Test C postemergence; type: in vivo, Echinochloa crusgalli; conditions: 10 days
How it was run: as §1

soybean [11] = assay: Test C preemergence; type: in vivo, Glycine max; conditions: 0 to 100 scale (0 no effect, 100 complete control)
How it was run: as §1

corn [12] = assay: Test C preemergence; type: in vivo, Zea mays; conditions: 0 to 100 scale (0 no effect, 100 complete control)
How it was run: as §1

ragweed [13] = assay: Test C postemergence; type: in vivo, Ambrosia artemisiifolia; conditions: 10 days
How it was run: as §1

pigweed, palmer [14] = assay: Test C preemergence; type: in vivo, Amaranthus palmeri; conditions: 0 to 100 scale (0 no effect, 100 complete control)
How it was run: as §1

galium = assay: Test C postemergence; type: in vivo, Galium aparine; conditions: 10 days
How it was run: as §1

green foxtail [15] = assay: Test C postemergence; type: in vivo, Setaria viridis; conditions: 10 days
How it was run: as §1

wheat [16] = assay: Test C postemergence; type: in vivo, Triticum aestivum; conditions: 10 days
How it was run: as §1

ragweed [17] = assay: Test C preemergence; type: in vivo, Ambrosia artemisiifolia; conditions: 0 to 100 scale (0 no effect, 100 complete control)
How it was run: as §1

soybean [18] = assay: Test C postemergence; type: in vivo, Glycine max; conditions: 10 days
How it was run: as §1

kochia [19] = assay: Test C postemergence; type: in vivo, Bassia scoparia; conditions: 10 days
How it was run: as §1

rice = assay: Test D flooded paddy test; type: in vivo, Oryza sativa; conditions: 250 g ai/ha, applied to paddy water, visual rating after 13 to 14 days, scale 0 to 100 (0 no effect, 100 complete control)
How it was run: as §2

barnyardgrass [20] = assay: Test D flooded paddy test; type: in vivo, Echinochloa crus-galli; conditions: 250 g ai/ha, applied to paddy water, visual rating after 13 to 14 days, scale 0 to 100 (0 no effect, 100 complete control)
How it was run: as §2

horseweed = assay: Test C postemergence; type: in vivo, Erigeron canadensis; conditions: 10 days
How it was run: as §1

sedge, umbrella = assay: Test D flooded paddy test; type: in vivo, Cyperus difformis; conditions: 250 g ai/ha, applied to paddy water, visual rating after 13 to 14 days, scale 0 to 100 (0 no effect, 100 complete control)
How it was run: as §2

blackgrass [21] = assay: Test C postemergence; type: in vivo, Alopecurus myosuroides; conditions: 10 days
How it was run: as §1

wheat [22] = assay: Test C preemergence; type: in vivo, Triticum aestivum; conditions: 0 to 100 scale (0 no effect, 100 complete control)
How it was run: as §1

corn [23] = assay: Test C postemergence; type: in vivo, Zea mays; conditions: 10 days
How it was run: as §1

[24] = Preemergence, 500 g ai/ha, visual rating after 10 days
[25] = Test C, preemergence, 125 g ai/ha
[26] = 125 g ai/ha, postemergence, 0 to 100 scale, 0 no effect, 100 complete control
[27] = Postemergence, 500 g ai/ha, visual 0 to 100 scale (0 no effect, 100 complete control)

CC(C)c1ncn(-c2cc3c(c(C(=O)N4C[C@H](C)Oc5c(Cl)cccc54)c2)OCCCO3)n1 [Compound 158]
25: Plant response rating, Barnyardgrass (Flood) (barnyardgrass [20])
40: Blackgrass plant response rating (blackgrass [8]; [25]) | Plant response rating, Ryegrass, Italian (ryegrass, Italian [9]; [26]) | Plant response rating, Barnyardgrass (barnyardgrass [10]; [26]) | Plant response rating, Blackgrass (blackgrass [21]; [26]) | Plant response rating, Wheat (wheat [22]; [24])
0: Corn plant response rating (corn [12]; [25]) | Plant response rating, Rice (Flood) (rice)
100: Plant response rating, Foxtail, Green (green foxtail [1]; [24]) | Foxtail, Green plant response rating (green foxtail [1]; [25]) | Plant response rating, Pigweed, Palmer (pigweed, palmer [5]; [27]) | Plant response rating, Pigweed, Palmer (pigweed, palmer [14]; [24]) | Pigweed, Palmer plant response rating (pigweed, palmer [14]; [25]) | Plant response rating, Galium (galium; [26]) | Plant response rating, Soybean (soybean [18]; [26]) | Plant response rating, Soybean (soybean [18]; [27])
30: Plant response rating, Oat, Wild (oat, wild [2]; [26]) | Plant response rating, Wheat (wheat [16]; [26])
80: Plant response rating, Oat, Wild (oat, wild [3]; [24]) | Plant response rating, Pigweed, Palmer (pigweed, palmer [5]; [26]) | Plant response rating, Ryegrass, Italian (ryegrass, Italian [6]; [24]) | Ryegrass, Italian plant response rating (ryegrass, Italian [6]; [25]) | Plant response rating, Soybean (soybean [11]; [24]) | Plant response rating, Ragweed (ragweed [13]; [27]) | Ragweed plant response rating (ragweed [17]; [25])
90: Plant response rating, Barnyardgrass (barnyardgrass [4]; [24]) | Plant response rating, Kochia (kochia [7]; [24]) | Plant response rating, Ragweed (ragweed [13]; [26]) | Plant response rating, Galium (galium; [27]) | Plant response rating, Foxtail, Green (green foxtail [15]; [27]) | Plant response rating, Ragweed (ragweed [17]; [24]) | Plant response rating, Kochia (kochia [19]; [27]) | Plant response rating, Blackgrass (blackgrass [21]; [27])
65: Plant response rating, Ducksalad (Flood) (ducksalad)
10: Wheat plant response rating (wheat [22]; [25])
20: Oat, Wild plant response rating (oat, wild [3]; [25]) | Plant response rating, Corn (corn [12]; [24]) | Plant response rating, Horseweed (horseweed; [26]) | Plant response rating, Horseweed (horseweed; [27])
60: Plant response rating, Oat, Wild (oat, wild [2]; [27]) | Barnyardgrass plant response rating (barnyardgrass [4]; 125 g ai/ha, preemergence) | Plant response rating, Blackgrass (blackgrass [8]; [24]) | Plant response rating, Foxtail, Green (green foxtail [15]; [26]) | Plant response rating, Corn (corn [23]; [27])
70: Kochia plant response rating (kochia [7]; [25]) | Plant response rating, Ryegrass, Italian (ryegrass, Italian [9]; [27]) | Plant response rating, Barnyardgrass (barnyardgrass [10]; [27]) | Plant response rating, Wheat (wheat [16]; [27]) | Plant response rating, Kochia (kochia [19]; [26])
50: Soybean plant response rating (soybean [11]; [25]) | Plant response rating, Corn (corn [23]; [26])
75: Plant response rating, Sedge, Umbrella (Flood) (sedge, umbrella)
